# Laboratory results taken from patent publication US5470858A, “Derivatives of (hetero)aromatic ethers and thioethers having antihyperlipidemic activity, process for their preparation and pharmaceutical compositions containing them” (Pierrel SpA, priority 1991, dated 1995).
# Read-outs that look alike come from different tables or passages of the source.
# Key:
# Type in all cases: in vivo
# [1] = test system: hyperlipaemic SD male rats; assay: Hypolipemizing activity, 5 days experimental model, modified Nath diet; conditions: rat, oral; for change in vivo at 100 mg/kg/day / change in vivo at 300 mg/kg/day: 120 h; for Hepatic index (percent variation vs hyperlipaemic controls): index = (Liver weight/body weight) × 100
# Method: (§1) The hypolipemizing activity of the compounds of the present invention has been evaluated in the rat using SD male animals (Charles River) of an initial weight of 150 g, housed in controlled environment at a temperature of 21°±1° C., relative humidity 60% and a 12 hours light/dark cycle.
# Experimental models have been used in which the animals are rendered hiperlipaemic by "ad libitum" food administration with a modified Nath diet (Atherosclerosis 30, 1978, pag. 45-46) having the following composition: […]
# hydrogenated coconut oil
# In the first model the animals have been fed with this diet for 5 consecutive days, during which they received the pharmacological treatment once a day by oral route and were sacrificed 2 hours after the last administration.
# At the time of the sacrifice the blood was removed, for the lipid determination, as well as the liver the weight of which was the index of a possible hepatomegaly.
# By this experimental model the concentration of the serum lipids attained very high values which, in the control group, was four times the normal values for the total cholesterol and the triglycerides.
# (§2) The determination of the triglycerides, of the total cholesterol and of the cholesterol associated to the HDL has been effected by means of a commercial enzymatic kit. The concentration of the cholesterol associated to VLDL+LDL has been determined by difference between total cholesterol and HDL.
# The results obtained in the experimental model of the 5 days duration for some compounds representative of the invention are reported in the following table 1. The data are expressed as percent variation with respect to the hyperlipaemic controls to which carboxymethylcellulose as 0.5% in water at the dose of 10 ml/kg/day by oral route was administered. The same vehicle was used for the suspension of the tested compounds at the doses of 100 and 300 mg/kg/day by oral route.
# [2] = test system: hyperlipaemic SD male rats; assay: Hypolipemizing activity, 15 days experimental model, modified diet; conditions: rat, oral; for Cholesterol VLDL + LDL (percent variation vs hyperlipaemic controls): by difference between total and HDL; for Hepatic index (percent variation vs hyperlipaemic controls): index = (Liver weight/body weight) × 100
# Method: as §1
# Experimental models have been used in which the animals are rendered hiperlipaemic by "ad libitum" food administration with a modified Nath diet (Atherosclerosis 30, 1978, pag. 45-46) having the following composition:
# In the second model a diet was used which was modified with respect to the former one by the following parameters: […]
# The animals were fasted with this diet for 15 days consecutively, during which they received the pharmacological treatment once a day by oral route and were sacrificed 24 hours after the last administration. At the sacrifice time the blood was removed for the lipid determination and the liver was removed as well to be weighed and used for the evaluation of the catalase enzyme as the index of the peroxysomes proliferation and thus of hepatotoxicity.
# This experimental model has been used only for the molecules which in the first model were found more promising, and has permitted to get values of the serum lipids from 2 to 3 times higher than the normal values both for the total cholesterol and for the triglycerides.
# This experimental model was used to:
# a) evaluate the effectiveness on a less marked hyperlipoproteinaemy, and
# b) assess mainly at the hepatic level the tolerability of the compounds during a more extended treatment.
# as §2
# On the basis of the indications provided by this screening the most interesting compounds have been evaluated by the 15 days experimental model which permits both the evaluation of the effectiveness in the case of a hyperlipaemia less marked and more constant, and the tolerability control of the compounds during a longer term treatment.
# In this case too the results (reported in the following table 2) are expressed as the percent variation with respect to the hyperlipaemic controls to which carboxymethylcellulose as 0.5% in water was administered by oral route at the dose of 10 ml/kg/day. The same vehicle was used for the suspension of the compounds being tested, administered at the doses; of 50 and 100 mg/kg/day by oral route.
# catalase enzyme = assay: Hepatic tolerability, 15 days at high dose: catalase enzyme activity in liver (index of peroxysomes proliferation); conditions: rat liver, absolute values, solvent 539,8
# Method: (§3) The hypolipemizing activity of the compounds of the present invention has been evaluated in the rat using SD male animals (Charles River) of an initial weight of 150 g, housed in controlled environment at a temperature of 21°±1° C., relative humidity 60% and a 12 hours light/dark cycle. The animals were fasted with this diet for 15 days consecutively, during which they received the pharmacological treatment once a day by oral route and were sacrificed 24 hours after the last administration. At the sacrifice time the blood was removed for the lipid determination and the liver was removed as well to be weighed and used for the evaluation of the catalase enzyme as the index of the peroxysomes proliferation and thus of hepatotoxicity. In order to evaluate the hepatic tolerability of the compounds of interest they have been administered for 15 days at a high dose (300 mg/kg/day) according to the same conditions of the previous experiment.24 hours after the last treatment the animals have been sacrificed, and the liver has been removed and stored at -20° C. up to the time of dosing the activity of the catalase enzyme (Methods of enzymatic analysis, vol.2, pag. 673, 1974 edit. H. U. Bergmeyer, Verlag Chemie International).
# liver = assay: Hepatic tolerability, 15 days at high dose: hepatic index; conditions: rat, absolute values, solvent 5,4
# Method: as §3
# [3] = 100 mg/kg/day, by difference between total and HDL, read-out: Cholesterol VLDL + LDL (percent variation vs hyperlipaemic controls)
# [4] = 100 mg/kg/day, read-out: Cholesterol HDL (percent variation vs hyperlipaemic controls)
# [5] = 100 mg/kg/day, read-out: Total Cholesterol (percent variation vs hyperlipaemic controls)
# [6] = 100 mg/kg/day, read-out: Triglycerides (percent variation vs hyperlipaemic controls)
# [7] = 300 mg/kg/day, by difference between total and HDL, read-out: Cholesterol VLDL + LDL (percent variation vs hyperlipaemic controls)
# [8] = 300 mg/kg/day, read-out: Cholesterol HDL (percent variation vs hyperlipaemic controls)
# [9] = 300 mg/kg/day, read-out: Total Cholesterol (percent variation vs hyperlipaemic controls)
# [10] = 300 mg/kg/day, read-out: Triglycerides (percent variation vs hyperlipaemic controls)
SMILES,"change in vivo at 100 mg/kg/day [1, 3]","change in vivo at 100 mg/kg/day [1, 4]","change in vivo at 100 mg/kg/day [1, 5]","change in vivo at 100 mg/kg/day [1, 6]","change in vivo at 300 mg/kg/day [1, 7]","change in vivo at 300 mg/kg/day [1, 9]","change in vivo at 300 mg/kg/day [1, 10]",Hepatic index (percent variation vs hyperlipaemic controls) ([1]; 300 mg/kg/day),Cholesterol HDL (percent variation vs hyperlipaemic controls) ([2]; 50 mg/kg/day),Total Cholesterol (percent variation vs hyperlipaemic controls) ([2]; 50 mg/kg/day),Triglycerides (percent variation vs hyperlipaemic controls) ([2]; 50 mg/kg/day),Cholesterol VLDL + LDL (percent variation vs hyperlipaemic controls) ([2]; 50 mg/kg/day),Hepatic index (percent variation vs hyperlipaemic controls) ([2]; 50 mg/kg/day),Cholesterol HDL (percent variation vs hyperlipaemic controls) ([2]; 100 mg/kg/day),Total Cholesterol (percent variation vs hyperlipaemic controls) ([2]; 100 mg/kg/day),Triglycerides (percent variation vs hyperlipaemic controls) ([2]; 100 mg/kg/day),Cholesterol VLDL + LDL (percent variation vs hyperlipaemic controls) ([2]; 100 mg/kg/day),Hepatic index (percent variation vs hyperlipaemic controls) ([2]; 100 mg/kg/day),"Catalase enzyme activity (catalase enzyme; oral, 15 days, 300 mg/kg/day)","Hepatic index (Liver weight/body weight) × 100 (liver; oral, 15 days, 300 mg/kg/day)",other results
CC(C)COC(=O)c1ccc(OCC(CSc2nc3c(N)ncnc3n2[C@@H]2O[C@H](CO)[C@@H](O)[C@H]2O)=NNC(N)=O)cc1 [Example 33],-37.4%,22.2%,-34.8%,-27.8%,-46.9%,-44.1%,-43%,"-2,5%","+15,6%","-29,7%","-20,5%","-34,7%","+2,2%","+19,4%","-33,8%","-30,6%","-39,7%","+3,9%","378,5 umoli/min/mg proteins","5,3","change in vivo at 300 mg/kg/day [1, 8]: 16.6%; Hepatic index (percent variation vs hyperlipaemic controls) ([1]; 100 mg/kg/day): -1,6%"
"CCOC(=O)C(C)(C)Oc1ccc(Cl)cc1 [Clofibrate, reference compound]",,,,,,,,,,,,,,,,,,,,,"Catalase enzyme activity (catalase enzyme; 200 mg/kg, standard): 680,9 umoli/min/mg proteins; Hepatic index (Liver weight/body weight) × 100 (liver; 200 mg/kg, standard): 7,0"
"CC(C)COC(=O)c1ccc(OCC(O)CSc2nc3ccccc3s2)cc1 (centres unmarked) [Example 6, 2-[3-[(p-isobutyloxycarbonyl)-phenoxy]-2-hydroxy-propylthio]-benzothiazole]",-18.8%,7.7%,-17%,-15.6%,-27.9%,-24.9%,-23.4%,"+0,4%","+1,0%","-16,1%","-18,2%","-19,0%","-1,7%","+4,3%","-19,0%","-49,1%","-21,7%","-4,1%","504,6 umoli/min/mg proteins","5,9","Hepatic index (percent variation vs hyperlipaemic controls) ([1]; 100 mg/kg/day): +2,2%"
"CC(C)COC(=O)c1ccc(OCC(=O)CSc2nc3ccccc3s2)cc1 [Example 2, 2-[3-[(p-isobutyloxycarbonyl)phenoxy]-2-oxo-propylthio]-benzothiazole]",-14.7%,10.4%,-13.2%,-22.1%,-21.8%,-19.5%,-32.5%,"-1,6%","-24,5%","-13,1%","-0,2%","-12,0%","+3,5%","-0,4%","-12,9%","-18,7%","-14,0%","-4,5%","603,0 umoli/min/mg proteins","6,0","change in vivo at 300 mg/kg/day [1, 8]: 13.9%; Hepatic index (percent variation vs hyperlipaemic controls) ([1]; 100 mg/kg/day): -6,5%"
CC(C)COC(=O)c1ccc(OCC(=O)CSc2nc3c(N)ncnc3n2[C@@H]2O[C@H](CO)[C@@H](O)[C@H]2O)cc1 [Example 28],-15.1%,5.7%,-14%,-16.3%,-33.7%,-31.3%,-22.5%,"-5,5%","+11,3%","-23,3%","-27,3%","-28,1%","+0,6%","+21,0%","-35,3%","-35,1%","-41,7%","-1,9%","479,7 umoli/min/mg proteins","5,6","change in vivo at 300 mg/kg/day [1, 8]: 22.7%"
CC(C)COC(=O)c1ccc(OCC(O)CSc2nc3ccccc3o2)cc1 (centres unmarked) [Example 11],-22.8%,9.5%,-21.4%,-21.6%,-39.7%,-37.1%,-30.3%,"-1,7%","-9,9%","-36,6%","-48,5%","-39,7%","+0,2%","+16,1%","-34,4%","-46,8%","-40,2%","-3,1%","444,7 umoli/min/mg proteins","5,8","change in vivo at 300 mg/kg/day [1, 8]: 14.9%; Hepatic index (percent variation vs hyperlipaemic controls) ([1]; 100 mg/kg/day): -2,3%"
